In PMC3668096 (FEBS letters, 2012):
One block for each molecule: values may come before it.

Key:
MshA = biological target: T1, MshA (Mycolicibacterium smegmatis, UniProt A0QQZ8); test: MshA glycosyltransferase assay; type: biochemical; settings: 1 mM UDP-GlcNAc, 1 mM 1-L-inositol-1-phosphate
T1 sequence (A0QQZ8 1-434): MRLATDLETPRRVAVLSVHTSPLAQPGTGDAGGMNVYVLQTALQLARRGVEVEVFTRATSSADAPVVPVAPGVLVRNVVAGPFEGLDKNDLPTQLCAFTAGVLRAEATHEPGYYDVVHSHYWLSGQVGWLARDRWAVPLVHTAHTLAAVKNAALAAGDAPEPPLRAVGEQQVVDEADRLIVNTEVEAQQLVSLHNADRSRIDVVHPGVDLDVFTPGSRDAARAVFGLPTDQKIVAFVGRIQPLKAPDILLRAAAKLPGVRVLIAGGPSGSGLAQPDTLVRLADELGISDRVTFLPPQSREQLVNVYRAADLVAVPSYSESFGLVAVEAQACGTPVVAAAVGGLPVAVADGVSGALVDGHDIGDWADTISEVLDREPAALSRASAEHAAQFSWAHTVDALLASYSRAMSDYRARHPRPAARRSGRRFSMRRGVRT

B. subtilis BshA = B. subtilis BshA (Bacillus subtilis, UniProt P42982); test: HPLC detection of UDP release at […] nm; type: biochemical
Chain of B. subtilis BshA (P42982 whole entry): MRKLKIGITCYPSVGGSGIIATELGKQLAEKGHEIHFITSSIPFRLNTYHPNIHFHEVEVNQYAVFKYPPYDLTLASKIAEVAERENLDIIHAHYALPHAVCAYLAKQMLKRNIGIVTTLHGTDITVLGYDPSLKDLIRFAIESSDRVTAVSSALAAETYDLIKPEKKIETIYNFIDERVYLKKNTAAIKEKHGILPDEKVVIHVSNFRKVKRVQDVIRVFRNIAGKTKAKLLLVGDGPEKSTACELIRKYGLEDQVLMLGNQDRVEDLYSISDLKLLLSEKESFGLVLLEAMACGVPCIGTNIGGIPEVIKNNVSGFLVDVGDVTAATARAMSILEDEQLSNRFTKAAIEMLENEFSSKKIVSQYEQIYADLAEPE

- IC50 (MshA; preincubated with MSH, feedback inhibition): 3600 µM
SMILES: CC(=O)N[C@@H](CS)C(=O)NC1[C@@H](O[C@@H]2[C@H](O)[C@H](O)[C@@H](O)[C@H](O)[C@H]2O)O[C@H](CO)[C@@H](O)[C@@H]1O (stereo partly drawn) [MSH, mycothiol]

- IC50 (MshA; preincubated with inhibitor): 200 µM
SMILES: CC(=O)N[C@H]1[C@@H](OP(=O)(O)OP(=O)(O)OC[C@H](C=O)OC(C=O)n2ccc(=O)[nH]c2=O)O[C@H](CO)[C@@H](O)[C@@H]1O (stereo partly drawn) [O-UDP-GlcNAc, 2’,3’-dialdehydo-UDP-N-acetylglucosamine]

- IC50 (B. subtilis BshA): 700 µM
SMILES: N[C@@H](CS)C(=O)N[C@H]1[C@@H](O[C@@H](CC(=O)O)C(=O)O)O[C@H](CO)[C@@H](O)[C@@H]1O [BSH, bacillithiol]
